{
  "source": "paper PMC12505902",
  "about": "“Inhibitors of trehalose-6-phosphate synthase activity in fungal pathogens compromise thermal tolerance pathways” (mBio, 2025)",
  "system": "C. glabrata (CBS138)",
  "assay": "MIC dose-response assay in YPD",
  "assay_type": "cell-based",
  "protocol": "Fig 4 4456dh inhibits the growth of Candida and Cryptococcus species. […] 4456dh was administered at the concentrations indicated. Cultures were grown in YPD at the listed temperatures for 48 hours for Candida species and 72 hours for Cryptococcus species. Experimental temperatures reflect the temperatures at which the fungi experience heat stress. Left: relative growth of treated samples was calculated by averaging technical triplicates and normalizing the OD600 of each treated well to the average OD600 of the untreated WT controls, after the absorbance due to the compound was subtracted. The MIC80 values, calculated based on the OD600 values, are indicated in the white text on each heat map. Right: representative spot assays show the ability of cells to grow after exposure to 4456dh and indicate fungicidal activity of 4456dh. […]\nFurthermore, there was significant fungicidal activity of 4456dh on C. glabrata in concentrations starting at approximately 7.8 µM (Fig. 4B).\n77 and 5 mM imidazole. The protein was eluted with increasing amounts of imidazole in the wash\n78 buffer. The fractions containing 6xHis-CnTps1 were pooled, reduced to 5 mL and purified further\n79 using S200 size exclusion column chromatography (HiLoad 26/600 Superdex 200pg, Cytiva) […]\n82 determined by SDS-PAGE analysis, were pooled and concentrated to 1 mg/mL for downstream […]\n93 The data were acquired with MO.Control 1.5.3 (NanoTemper Technologies GmbH). Recorded\n94 data were analyzed with MO.Affinity Analysis 2.2.7 (NanoTemper Technologies GmbH). […]\n100 2X Glo-melt dye. Thermal denaturation was measured using an RT-PCR thermocycler (BioRad) […]\n102 determined by identifying the inflection point of the derivative data. […]\n104 The catalytic activity of C. albicans Tps1 and C. neoformans Tps1 was measured via a continuous […]\n110 bottomed 96-well microtiter plates and the decrease in absorbance at 340 nm during the initial\n111 reaction rate was recorded using a plate reader (Tecan). The decrease in absorbance was\n112 analyzed for the first 200s of the kinetic reaction. […]",
  "note": "Where two headings read alike, the source gives them in different places.",
  "data": [
    {"smiles": "Cn1cc(-c2csc(NC(=O)Cc3ccccn3)n2)cn1", "note": "[Compound 4456dh]", "values": [
      {"measurement": "MIC80", "setting": "30°C, YPD", "result": "no MIC or fungicidal activity was detected"},
      {"measurement": "MIC80", "setting": "Nakaseomyces glabratus, CBS138, 42°C, YPD, 48 hours, read-out: MIC80", "result": 7.8, "unit": "µM"},
      {"measurement": "MIC80", "setting": "Nakaseomyces glabratus, CBS138, Supplemental Table 5, This publication, read-out: MIC80", "result": 3.1, "unit": "µg/mL"}
    ]}
  ]
}
